The text below walks through data of US11407715B2, “Substituted indoline derivatives as dengue viral replication inhibitors” (JANSSEN PHARMACEUTICALS, INC., priority 2017, dated 2022).

Like-named read-outs stand apart in the source and are kept apart here.

One data set relates to DENV-2 16681 strain. The data set is described as follows: microbe, parasite or virus in culture. Format: cell-based, Dengue virus. To be noted: for EC50: DENV-2 16681 eGFP, Vero cells, MOI 0.5, 3 days; for SI: SI=CC50/EC50, DENV-2 antiviral assay.
Another data set concerns DENV-1 strain TC974#666. The experiment in a line: Tetravalent RT-qPCR assay, serotype 1. Format: cell-based, Dengue virus. The conditions noted are these: RT-qPCR serotype 1 TC974#666, Vero cells. As for the experimental part: (§1) The antiviral activity of the compounds of the invention was tested against DENV-1 strain TC974#666 (NCPV), DENV-2 strain 16681, DENV-3 strain H87 (NCPV) and DENV-4 strain H241 (NCPV) in a RT-qPCR assay. Therefore, Vero cells were infected with either DENV-1, or -2, or -3, or -4 in the presence or absence of test compounds. At day 3 post-infection, the cells were lysed and cell lysates were used to prepare cDNA of both a viral target (the 3′UTR of DENV; Table 2) and a cellular reference gene (β-actin, Table 2). Subsequently, a duplex real time PCR was performed on a Lightcycler480 instrument. The generated Cp value is inversely proportional to the amount of RNA expression of these targets. Inhibition of DENV replication by a test compound results in a shift of Cp's for the 3′UTR gene. On the other hand, if a test compound is toxic to the cells, a similar effect on β-actin expression will be observed. The comparative ΔΔCp method is used to calculate ECs50, which is based on the relative gene expression of the target gene (3′UTR) normalized with the cellular housekeeping gene (β-actin). In addition, CC50 values are determined based on the Cp values acquired for the housekeeping gene β-actin.
(§2) The culture medium consisted of minimal essential medium supplemented with 2% of heat-inactivated fetal calf serum, 0.04% gentamycin (50 mg/mL) and 2 mM of L-glutamine. Vero cells, obtained from ECACC, were suspended in culture medium and 75 μL/well was added in 96-well plates (10000 cells/well), which already contain the antiviral compounds. […] In addition, each plate contains wells which are assigned as virus controls (containing cells and virus in the absence of compound) and cell controls (containing cells in the absence of virus and compound). Once the cells were added in the plates, the plates were incubated in a fully humidified incubator (37° C., 5% CO2) until the next day. Dengue viruses serotype-1, 2, 3 and 4 were diluted in order to obtain a Cp of ˜22-24 in the assay. Therefore, 25 μL of virus suspension was added to all the wells containing test compound and to the wells assigned as virus control. In parallel, 25 μL of culture medium was added to the cell controls. Next, the plates were incubated for 3 days in a fully humidified incubator (37° C., 5% CO2). After 3 days, the supernatant was removed from the wells and the cells were washed twice with ice-cold PBS (˜100 μL). The cell pellets within the 96-well plates were stored at −80° C. for at least 1 day. Next, RNA was extracted using the Cells-to-CT™ lysis kit, according to the manufacturer's guideline (Life Technologies). The cell lysates can be stored at −80C or immediately used in the reverse transcription step.
(§3) In preparation of the reverse transcription step, mix A (table 3A) was prepared and 7.57 μL/well was dispensed in a 96-well plate. After addition of 5 μL of the cell lysates, a five minute denaturation step at 75° C. was performed (table 3B). Afterwards, 7.43 μL of mix B was added (table 3C) and the reverse transcription step was initiated (table 3D) to generate cDNA.
(§4) Finally, a RT-qPCR mix was prepared, mix C (table 4A), and 22.02 μL/well was dispensed in 96-well LightCycler qPCR plates to which 3 μL of cDNA was added and the qPCR was performed according to the conditions in table 4B on a LightCycler 480.
(§5) Using the LightCycler software and an in-house LIMS system, dose response curves for each compound were calculated and the half maximal effective concentration (EC50) and the half maximal cytotoxic concentration (CC50) were determined (Tables 5-8).

For another data set, the system named is DENV-2 strain 16681. The data set is described as follows: Tetravalent RT-qPCR assay, serotype 2. Format: cell-based, Dengue virus. To be noted: RT-qPCR serotype 2 16681, Vero cells. The procedure:
as §1, §2, §3, §4, §5

For the next data set, the system named is DENV-3 strain H87. The experiment in a line: Tetravalent RT-qPCR assay, serotype 3. Type of data set: cell-based, Dengue virus. The conditions noted are these: RT-qPCR serotype 3 H87, Vero cells. As for the experimental part: as §1, §2, §3, §4, §5
In a further data set the test system is DENV-4 strain H241. The data set is described as follows: Tetravalent RT-qPCR assay, serotype 4. Format: cell-based, Dengue virus. To be noted: RT-qPCR serotype 4 H241, Vero cells. As for the experimental part: as §1, §2, §3, §4, §5
A short description of data set [1]: in vitro. To be noted: African green monkey.
The nature of data set [2]: in vitro. To be noted: African green monkey. The source holds these as a separate data set.
The test system of data set [3] is Vero cells. To be noted: African green monkey.
In data set [4] the test system is Vero cells. The conditions noted are these: African green monkey, 3 days.

Take `COc1cc(NC(C(=O)N2CCc3ccc(OC(F)(F)F)cc32)c2ccc(Cl)cc2)cc(OCCC(C)(C)C(=O)O)c1` (single isomer, unassigned) [Compound 2A]: the EC50 was determined as 0.38 nM in the data set with DENV-2 16681 strain; 0.57 nM in the data set with DENV-1 strain TC974#666 (Dengue virus, DENV1, Vero); 0.48 nM in the data set on DENV-2 strain 16681 (Dengue virus, DENV2, Vero); 6.1 nM with DENV-3 strain H87 (Dengue virus, DENV3, Vero); 27 nM in the data set with DENV-4 strain H241 (Dengue virus, DENV4, Vero). In the data set with DENV-2 16681 strain, this molecule yielded an SI of 34500. For the same molecule, the CC50 in the data set “in vitro [1]” was 13000 nM. The same molecule registered a CC50 at 3 days in the data set “in vitro [2]” above 2500 nM.
On to `COc1cc(NC(C(=O)N2CCc3ccc(OC(F)(F)F)cc32)c2ccc(Cl)cc2)cc(OCC(C)CC(=O)O)c1` (single isomer, unassigned) [Compound 4C], for which the EC50 in the data set with DENV-2 16681 strain stood at 0.11 nM; in the data set on DENV-1 strain TC974#666, 0.066 nM; in the data set with DENV-2 strain 16681, 0.06 nM; in the data set on DENV-3 strain H87, 0.77 nM; with DENV-4 strain H241 (Dengue virus, DENV4, Vero), 15 nM. The molecule also had an SI in the data set with DENV-2 16681 strain of 121878. The results for the CC50 in the data set with Vero cells [3] and with Vero cells [4] were 13000 nM and above 1000 nM, respectively.
As to `COc1cc(NC(C(=O)N2CCc3ccc(OC(F)(F)F)cc32)c2ccc(Cl)cc2)cc(OCCCCC(=O)O)c1` (single isomer, unassigned) [Compound 13B], the EC50 in the data set on DENV-2 16681 strain stood at 0.13 nM; in the data set on DENV-1 strain TC974#666 (Dengue virus, DENV1, Vero), 0.19 nM; in the data set with DENV-2 strain 16681 (Dengue virus, DENV2, Vero) it was 0.12 nM; with DENV-3 strain H87 (Dengue virus, DENV3, Vero), 1.9 nM; with DENV-4 strain H241 (Dengue virus, DENV4, Vero), 15 nM. The molecule also had an SI in the data set on DENV-2 16681 strain of 88200. This molecule had a CC50 in the data set with Vero cells [3] of 12000 nM. The molecule also returned a CC50 at 3 days in the data set “in vitro [2]” above 2500 nM.
As for `COc1cc(NC(C(=O)N2CCc3cc(OC)c(C(F)(F)F)cc32)c2ccc(Cl)cc2)cc(OCCC(C)C(=O)O)c1` (single isomer, unassigned) [Compound 20C], the EC50 stood at 0.17 nM with DENV-2 16681 strain; 0.3 nM in the data set on DENV-1 strain TC974#666; 0.071 nM in the data set on DENV-2 strain 16681; 3.4 nM with DENV-3 strain H87; 20 nM with DENV-4 strain H241. The molecule further had an SI in the data set with DENV-2 16681 strain of 59500. The CC50 in the data set with Vero cells [3] is 12000 nM; in the data set with Vero cells [4], above 1000 nM. Also, the CC50 at 3 days in “in vitro [2]” is above 1000 nM.
For `COc1cc(NC(C(=O)N2CCc3cc(OC)c(C(F)(F)F)cc32)c2ccc(Cl)cc2)cc(OCCC(C)C(=O)O)c1` (single isomer, unassigned) [Compound 20D], the EC50 came to 0.23 nM with DENV-2 16681 strain; 0.89 nM in the data set with DENV-1 strain TC974#666; 0.19 nM with DENV-2 strain 16681; 8.9 nM in the data set with DENV-3 strain H87; 55 nM in the data set on DENV-4 strain H241. This molecule came in with an SI in the data set on DENV-2 16681 strain of 53400. Moreover, the results for the CC50 in the data set on Vero cells [3] and in the data set on Vero cells [4] were 13000 nM and above 1000 nM, respectively.
Consider `COc1cc(NC(C(=O)N2CCc3ccc(OC(F)(F)F)cc32)c2ccc(Cl)cc2)cc(OCC2(F)CC2C(=O)O)c1` (centres unmarked) [Compound 28BB], for which the EC50 turned out to be 0.2 nM in the data set with DENV-2 16681 strain; 0.11 nM with DENV-1 strain TC974#666; 0.1 nM in the data set on DENV-2 strain 16681; 1.2 nM in the data set with DENV-3 strain H87; 18 nM in the data set with DENV-4 strain H241. For the same molecule, the SI with DENV-2 16681 strain stood at 70600. The CC50 was 12000 nM in the data set on Vero cells [3] and above 1000 nM with Vero cells [4].
As for `COc1cc(NC(C(=O)N2CCc3cc(F)c(OC(F)(F)F)cc32)c2ccc(Cl)cc2)cc(OCC2CC(C(=O)O)C2)c1` (centres unmarked) [Compound 30A], the EC50 in the data set on DENV-2 16681 strain worked out at 0.24 nM; in the data set on DENV-1 strain TC974#666, 0.094 nM; in the data set with DENV-2 strain 16681 (Dengue virus, DENV2, Vero), 0.076 nM; in the data set with DENV-3 strain H87 (Dengue virus, DENV3, Vero), 1.9 nM; in the data set with DENV-4 strain H241 (Dengue virus, DENV4, Vero) it was 18 nM. The molecule further gave an SI with DENV-2 16681 strain of 47400. This molecule also yielded a CC50 in “in vitro [1]” of 13000 nM.
